Results published in patent US8853221B2, “Compounds of estrogen-related receptor modulators and the uses thereof” (Guangzhou Institute of Biomedicine & Health, Chinese …, priority 2008, dated 2014).

Legend:
high-fat-diet mice [1] = experiment: Insulin resistance (insulin tolerance) test in high-fat-diet mice; assay type: in vivo, C57BL/J6 mice; conditions: 5 mg/kg/day by gavage, fasted 5 h, insulin 0.75 IU/kg (FIG. 5)
Description: (§1) Seven weeks old male C57BL/J6 mice were either fed chow diet or a high-fat-diet with 60% calories from lard for 10 weeks. Compounds were administered to animals by gavage for two weeks at different doses. Four groups of animals (n=5) were administered with either vehicle, 5 mg/kg/day rosiglitazone, or 5 mg/kg/day DK45. Animals were fasted for 5 h, and then orally fed glucose. Blood samples were withdrawn at time 0, 15, 30, 60 and 120 min. Blood glucose level was measured by monitor (Accu-chek Advantage, Roche). The changes in blood glucose level were plotted against time and the areas under the curve were calculated for the different groups.
In addition, insullin resistance test was administered. Animals were fasted for 5 h, and then injected insulin (0.75 IU/kg). Blood samples were withdrawn at time 0, 15, 30, 60 and 120 min. Blood glucose level was measured by monitor (Accu-chek Advantage, Roche). The changes in blood glucose level were plotted against time and the areas under the curve were calculated for the different groups.
(§2) The blood insulin levels of fasting and non-fasting treatments also indicate that DK45 at 5 mg/kg/day reduced the blood insulin levels of non-fasting treatments (FIG. 6).

high-fat-diet mice [2] = experiment: Oral glucose tolerance test in high-fat-diet mice; assay type: in vivo, C57BL/J6 mice; conditions: 5 mg/kg/day by gavage for two weeks, fasted 5 h (FIG. 3)
Description: as §1

GAL-hERRα = molecular target: T1, GAL-hERRα (Homo sapiens, UniProt P11474); experiment: GAL4-ERRα ligand binding domain luciferase reporter activation assay in 293 FT cells co-transfected with CMV-PGC-1α; assay type: cell-based; conditions: in the presence of CMV-PGC-1α, approximately 24 hours, increasing concentrations (FIG. 1)
T1 construct: expressed in transfected cells; host or cells: 293 FT cells
T1 sequence (P11474 193-421 limits assumed): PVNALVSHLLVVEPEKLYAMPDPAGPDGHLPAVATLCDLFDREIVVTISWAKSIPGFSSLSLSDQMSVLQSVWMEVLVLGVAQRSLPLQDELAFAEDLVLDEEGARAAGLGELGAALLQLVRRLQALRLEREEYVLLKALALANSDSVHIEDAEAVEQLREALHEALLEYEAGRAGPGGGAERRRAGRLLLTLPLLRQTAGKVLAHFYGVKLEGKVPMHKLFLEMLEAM
Text: To test the effect of the compounds on ERR and other nuclear hormone receptors, 293 FT cells were transiently transfected with expression vectors for the receptors along with appropriate reporter constructs according to methods known in the art. Suitable reporter gene constructs are well known to skilled workers in the fields of biochemistry and molecular biology. Other vectors known in the art can be used in the methods of the present invention. GAL4 fusions containing receptor ligand binding domain fragments were constructed by fusing human ERRα, human ERRβ and murine ERRγ ligand binding domain sequences to the C-terminal end of the yeast GAL4 DNA binding domain (amino acids 1-147 accession X85976) to form the expression vectors GAL-hERRα, GAL-L-hERRβ and Gal-mERRγ, respectively. pGAL is a control containing the yeast GAL4 DNA binding domain without receptor sequences. CMV-PGC-1α contains and expressed the PGC-1α coding sequences derived from PGC-1α (accession NM--008904). 293 FT cells for the activation assays were grown in Dulbecco's modified Eagle's medium supplemented with 10% resin charcoal-stripped fetal bovine serum at 37° C. in 5% CO2. One day prior to transfection, cells were plated to 50-80% confluence using phenol red free DMEM-FBS. The cells were transiently transfected by lipofection but other methods of transfection of DNA into cells can be utilized without deviating from the spirit of the invention. Luciferase reporter construct UASgx4-TK-Luc and cytomegalovirus-driven expression vector p-GAL, GAL-hERRα, GAL-L-hERRβ or Gal-mERRγ were added with CMV-PGC-1α. The cells were treated for approximately 24 hours with phenol red free DMEM-FBS containing 0.01% DMSO (control) or 0.01% DMSO with increasing concentrations of DK compounds. […] (FIG. 1).

high-fat-diet mice [3] = experiment: Blood insulin level in high-fat-diet mice; assay type: in vivo, C57BL/J6 mice; conditions: 5 mg/kg/day by gavage, non-fasting (FIG. 6)
Description: as §1, §2

high-fat-diet mice [4] = experiment: Serum free fatty acid, cholesterol and triglyceride levels in high-fat-diet mice; assay type: in vivo, C57BL/J6 mice; conditions: 5 mg/kg/day
Description: as §1
Moreover, DK45 at 5 mg/kg/day reduced serum free fatty acid (FIG. 7), cholesterol (FIG. 8), and triglyceride levels (FIG. 9) of non-fasting treatments.

[5] = tested on: PDK4-promoter reporter gene driven by ERRα; experiment: PDK4-promoter luciferase reporter gene assay driven by ERRα in HeLa cells; assay type: cell-based, human; conditions: 10 uM, approximately 24 hours (FIG. 2)
Text: (§3) HeLa were transiently transfected with the pGL3-promoter (Promega) derivative pGL3-PGC1α-promoter or PDK4-Promega and expression vector for ERRα. The Renilla-Luciferase pRL-CMV Vector (Promega) was included as a control for transfection efficiency. The full length human ERRα was cloned into the expression vector pCMV. The pGL3-PGC1α-promoter or PDK4-promoter was generated by cloning an insert derived from a PCR reaction using human genomic DNA as template and primers based on the 2.6 kbp upstream sequence of the PGC1α transcriptional start site.
(§4) HeLa cells for the activation assays were grown in Dulbecco's modified Eagle's medium supplemented with 10% fetal bovine serum at 37° C. in 5% CO2. One day prior to transfection, cells were plated to 50-80% confluence using DMEM-FBS. The cells were transiently transfected by lipofection but other methods of transfection of DNA into cells can be utilized without deviating from the spirit of the invention. Luciferase reporter construct pGL3-PGC1α-promoter or PDK4-promoter and cytomegalovirus-driven expression vector pCMV or pCMV-hERRα were added. The cells were treated for approximately 24 hours with DMEM-FBS containing 0.01% DMSO (control) or 0.01% DMSO with 10 uM DK45 compound.

high-fat-diet mice [6] = experiment: Non-fasting blood glucose level in high-fat-diet mice; assay type: in vivo, C57BL/J6 mice; conditions: 5 mg/kg/day by gavage for two weeks, non-fasting (FIG. 4)
[7] = tested on: PGC1α-promoter reporter gene driven by ERRα; experiment: PGC1α-promoter luciferase reporter gene assay driven by ERRα in HeLa cells; assay type: cell-based, human; conditions: 10 uM, approximately 24 hours (FIG. 2)
Text: as §3, §4

SMILES | area under the curve of the insulin resistance test (high-fat-diet mice [1]) | area under the curve of the oral glucose tolerance test (high-fat-diet mice [2]) | activity of GAL-hERRα on reporter construct UASgx4-TK-Luc (GAL-hERRα) | blood insulin levels of non-fasting treatments (high-fat-diet mice [3]) | serum free fatty acid (high-fat-diet mice [4]; non-fasting (FIG. 7)) | serum cholesterol (high-fat-diet mice [4]; non-fasting (FIG. 8)) | serum triglyceride levels (high-fat-diet mice [4]; non-fasting (FIG. 9)) | PDK4-promoter reporter gene driven by ERRα [5] | blood glucose levels, non-fasting (high-fat-diet mice [6]) | PGC1α-promoter reporter gene driven by ERRα [7]
CCc1ccn2c(=O)cc(-c3ccccc3)nc2c1 [DK45, 8-ethyl-2-phenyl-4H-pyrido[1,2-a]pyrimidin-4-one] | reduced | reduced | dose-dependently enhances | reduced | reduced | reduced | reduced | enhancement | reduced | enhancement
CC(C)Oc1ccn2c(=O)cc(-c3ccccc3)nc2c1 [DK41, 8-isopropoxy-2-phenyl-4H-pyrido[1,2-a]pyrimidin-4-one] | – | – | dose-dependently enhances | – | – | – | – | – | – | –
COc1ccn2c(=O)cc(-c3ccccc3)nc2c1 [DK36, 8-methoxy-2-phenyl-4H-pyrido[1,2-a]pyrimidin-4-one] | – | – | dose-dependently enhances | – | – | – | – | – | – | –
